Data on 6 molecules can be found in patent US20250243242A1, “LEVODOPA TYROSINE POLYMORPHS” (NeuroDerm, Ltd., priority 2022, published 2025).

Common to all, as to assay type: physicochemical
A short description of data set [1]: solid form stability upon storage at ambient conditions.
Data set [2] is described as follows: dynamic vapor sorption (DVS). Conditions: for hygroscopicity, weight gained: between 40-80% RH; for hygroscopicity (in words): DVS, 40-80% RH. As for the experimental part: Dynamic vapour sorption (DVS) was performed using a Hiden Analytical Instruments IGAsorp Vapour Sorption Balance. Approximately 30 mg of sample was placed into a wire-mesh vapour sorption balance pan, loaded into the IGAsorp vapour sorption balance and held at 25° C.±0.1° C. The sample was subjected to a step profile in 10% increments from 40-90% RH, followed by desorption from 90-0% RH and a second sorption cycle form 0-40% RH. The equilibrium criterion was set to 99.0% step completion within a minimum of 60 minutes and a maximum of 5 hours for each increment. The weight change during the sorption cycle was monitored, allowing for the hygroscopic nature of the sample to be determined. The data collection interval was in seconds.

The nature of data set [3]: physical stability at 75% RH and 40° C.
A short description of data set [4]: aqueous solubility at various pH.
[5] abbreviates: between about 40 to about 80% RH at 25° C.

≈ marks a conversion by molar mass, not a printed value. Non-standard residues stand in square brackets, D forms with d. Residues, ends and D or L forms follow the SMILES beside them. Dopa = N[C@@H](Cc1ccc(O)c(O)c1)C(=O)O

One may read the solubility as the dissolved amount per volume that the medium holds. A high value points to much dissolved substance.

Turning to `N[C@@H](Cc1ccc(O)c(O)c1)C(=O)N[C@@H](Cc1ccc(O)cc1)C(=O)O` [Form D, ((S)-2-amino-3-(3,4-dihydroxyphenyl)propanoyl)-L-tyrosine] (H-[Dopa]-Tyr-OH), in data set [1], the “form conversion upon storage” value is listed as “converted to Form N”.

Regarding `N[C@@H](Cc1ccc(O)c(O)c1)C(=O)N[C@@H](Cc1ccc(O)cc1)C(=O)O` [Form G, ((S)-2-amino-3-(3,4-dihydroxyphenyl)propanoyl)-L-tyrosine] (H-[Dopa]-Tyr-OH), the “hygroscopicity, weight gained” value in data set [2] amounted to 2.6 % w/w. For the same molecule, in data set [2] (setting [5]), the “DVS reversable total mass change” value is on record as “about 2.6 wt. %”.

For the molecule `N[C@@H](Cc1ccc(O)c(O)c1)C(=O)N[C@@H](Cc1ccc(O)cc1)C(=O)O` [Form E, ((S)-2-amino-3-(3,4-dihydroxyphenyl)propanoyl)-L-tyrosine] (H-[Dopa]-Tyr-OH), the “form conversion upon storage” value in data set [1] was “converted to Form B”. Also, the “DVS reversable total mass change” value in data set [2] (between about 0 to about 90% RH at 25° C.) is reported as “about 8 wt. %”.

On to `N[C@@H](Cc1ccc(O)c(O)c1)C(=O)N[C@@H](Cc1ccc(O)cc1)C(=O)O` [amorphous form, ((S)-2-amino-3-(3,4-dihydroxyphenyl)propanoyl)-L-tyrosine] (H-[Dopa]-Tyr-OH), for which the “hygroscopicity (in words)” value in data set [2] is listed as “hygroscopic”. Also, the “solid form by XRPD following DVS cycling” value in data set [2] (XRPD after DVS cycling) is “converted to Pattern N material”. In addition, the “DVS reversable total mass change” value in data set [2] (setting [5]) is on record as “about 4.19 wt. %”.

Regarding `N[C@@H](Cc1ccc(O)c(O)c1)C(=O)N[C@@H](Cc1ccc(O)cc1)C(=O)O` [Form N, ((S)-2-amino-3-(3,4-dihydroxyphenyl)propanoyl)-L-tyrosine] (H-[Dopa]-Tyr-OH), the physical stability entry in data set [3] is “physically stable”. In data set [2] (DVS analysis, compared with Form G), the “hydrate stability, water loss at low RH” value is reported as “more stable hydrate”. Further, the “hygroscopicity (in words)” value in data set [2] is “less hygroscopic”. Also, in data set [2], the “hygroscopicity, weight gained” value stood at 0.6 % w/w. Also, in data set [2] (setting [5]), the “DVS reversable total mass change” value is reported as “about 0.6 wt. %”. Further, the solubility is about 2860 µg/mL (≈ 7.94 mM) in data set [4] (aqueous medium, pH 3.27, aqueous buffer, pH of about 3.27); about 1640 µg/mL (≈ 4.55 mM) in data set [4] (aqueous medium, pH 3.83, aqueous buffer, pH of about 3.83); about 1540 µg/mL (≈ 4.27 mM) in data set [4] (aqueous medium, pH 3.92, aqueous buffer, pH of about 3.92); about 1330 µg/mL (≈ 3.69 mM) in data set [4] (aqueous medium, pH 4.68, aqueous buffer, pH of about 4.68); about 1290 µg/mL (≈ 3.58 mM) in data set [4] (aqueous medium, pH 5, aqueous buffer, pH of about 5.00); about 1370 µg/mL (≈ 3.8 mM) in data set [4] (aqueous medium, pH 6.04, aqueous buffer, pH of about 6.04). Besides, the solubility was about 184000 µg/mL (≈ 512 mM) in data set [4] (aqueous solution, pH 1.17, simulated gastric fluid, pH of about 1.17); about 9460 µg/mL (≈ 26.3 mM) in data set [4] (aqueous solution, pH 2.6, aqueous buffer, pH of about 2.60); about 4060 µg/mL (≈ 11.3 mM) in data set [4] (aqueous solution, pH 3, aqueous buffer, pH of about 3.00); about 510 µg/mL (≈ 1.42 mM) in data set [4] (aqueous solution, pH 6.78, aqueous buffer, pH of about 6.78); about 18900 µg/mL (≈ 52.3 mM) in data set [4] (aqueous solution, pH 7.56, aqueous buffer, pH of about 7.56); about 111000 µg/mL (≈ 309 mM) in data set [4] (aqueous solution, pH 8.69, aqueous buffer, pH of about 8.69). Also, the solubility was about 58700 µg/mL (≈ 163 mM) in data set [4] (aqueous solution, pH 9.43, aqueous buffer, pH of about 9.43) and about 155000 µg/mL (≈ 431 mM) in data set [4] (aqueous solution, pH 10.26, aqueous buffer, pH of about 10.26).

Consider `N[C@@H](Cc1ccc(O)c(O)c1)C(=O)N[C@@H](Cc1ccc(O)cc1)C(=O)O` [Form C, ((S)-2-amino-3-(3,4-dihydroxyphenyl)propanoyl)-L-tyrosine] (H-[Dopa]-Tyr-OH), for which, in data set [1], the “form conversion upon storage” value was “converted to Form G”.
